26 compounds from patent US7612089B2, “Tetrahydroisoquinolines as factor Xa inhibitors” (Portola Pharmaceuticals, Inc., priority 2004, dated 2009) can be followed below.

The target in the assay is T1, human plasma protein factor Xa (Homo sapiens, UniProt P00742).
T1 construct: The human plasma protein factor Xa was purchased; purchased Haematologic Technologies (Essex Junction, Vt.); host or cells: human plasma
T1 sequence (P00742 235-488 limits assumed): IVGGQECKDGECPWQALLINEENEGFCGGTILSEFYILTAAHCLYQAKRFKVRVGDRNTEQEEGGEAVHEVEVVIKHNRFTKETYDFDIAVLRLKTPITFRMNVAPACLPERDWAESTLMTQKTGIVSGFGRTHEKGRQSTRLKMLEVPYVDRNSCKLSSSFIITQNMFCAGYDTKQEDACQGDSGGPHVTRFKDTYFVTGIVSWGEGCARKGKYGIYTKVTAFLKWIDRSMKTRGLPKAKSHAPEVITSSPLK
T1 sequence (P00742 41-179 partner limits assumed): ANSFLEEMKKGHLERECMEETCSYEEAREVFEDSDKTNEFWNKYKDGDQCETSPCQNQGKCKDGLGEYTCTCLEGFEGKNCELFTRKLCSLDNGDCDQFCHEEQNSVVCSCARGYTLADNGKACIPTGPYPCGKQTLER
Briefly: Factor Xa IC50 determination (cleavage of paranitroanilide substrate S-2765). The format is biochemical. Particulars: fXa 1 nM, S2765 100 μM, Tris buffered saline pH 7.4, room temperature. The source says:
This example illustrates methods for evaluating the compounds of the invention, along with results obtained for such assays. The in vitro and in vivo Factor Xa isoform activities of the inventive compounds can be determined by various procedures known in the art, such as a test for their ability to inhibit the activity of the Factor Xa isoform. […] The IC50 value is the concentration (in nM) of the compound required to provide 50% inhibition of Factor Xa isoform.
An in vitro assay for detecting and measuring inhibition activity against Factor Xa is as follows:
IC50 and Ki Determinations:
The substrate S-2765 (Z-D-Arg-Gly-Arg-pNA.HCl) was obtained from Diapharma (West Chester, Ohio).
The human plasma protein factor Xa was purchased from Haematologic Technologies (Essex Junction, Vt.).
All assays, which are performed in 96-well microtiter plates, measure proteolytic activity of the enzyme (factor Xa) by following cleavage of paranitroanilide substrate. The assay buffer used for proteolytic assays was Tris buffered saline (20 mM Tris, 150 mM NaCl, 5 mM CaCl2, 0.1% Bovine serum albumin (BSA), 5% Dimethly Sulfoxide (DMSO) pH 7.4). In a 96-well microtiter plate, inhibitor was serially diluted to give a range of concentrations from 0.01 nM to 10 μM (final). Duplicate sets of wells were assayed and control wells without inhibitor were included. Enzyme was added to each well, (fXa concentration=1 nM), the plate was shaken for 5 seconds and then incubated for 5 minutes at room temperature. S2765 was added (100 μM final) and the plate was shaken for 5 seconds (final liquid volume in each well was 200 μl). The degree of substrate hydrolysis was measured at 405 nm on a Thermomax plate reader (Molecular Devices, Sunnyvale, Calif.) for 2 minutes. The initial velocities (mOD/min), for each range of inhibitor concentrations, were fitted to a four parameter equation using Softmax data analysis software. The parameter C, derived from the resulting curve-fit, corresponded to the concentration for half maximal inhibition (IC50).
In turn, `COc1cc2c(cc1OC)CN(C(=O)Nc1ccc(Cl)cc1)[C@H](C(=O)Nc1ccc(C(=N)N3CCCC3)cc1)C2` [Example 22, (3S)-N-[4-(pyrrolidinylimino)phenyl]-2N-(4-chlorophenylaminocarbonyl)-6,7-dimethoxy-1,2,3,4-tetrahydroisoquinoline-3-carboxamide] displayed an IC50 of 100 to 500 nM.

`COc1cc2c(cc1OC)CN(C(=O)Nc1ccc(Cl)cc1)[C@H](C(=O)Nc1ccc(C(=N)N(C)C)cc1)C2` [Example 23, (3S)-N-[4-(dimethylaminoimino)phenyl]-2N-(4-chlorophenylaminocarbonyl)-6,7-diemthoxy-1,2,3,4-tetrahydroisoquinoline-3-carboxamide] displayed an IC50 of at least 500 nM.

As to `CN1CCN=C1c1ccc(NC(=O)C2Cc3cc(O)ccc3CN2C(=O)Nc2ccc(Cl)cc2)cc1` (centres unmarked) [Example 24, N-[4-(1-methyl-4,5-dihydro-1H-imidazol-2-yl)phenyl]-2N-(4-chlorophenylaminocarbonyl)-6-hydroxy-1,2,3,4-tetrahydroisoquinoline-3-carboxamide], the IC50 is at most 100 nM.

`CN1CCN=C1c1ccc(NC(=O)C2Cc3sccc3CN2C(=O)Nc2ccc(Cl)cc2)cc1` (centres unmarked) [Example 25, N-[4-(1-methyl-4,5-dihydro-1H-imidazol-2-yl)phenyl]-5N-(4-chlorophenylaminocarbonyl)-4,5,6,7-tetrahydro-thieno[3,2-c]pyridine-6-carboxamide]: the IC50 was at most 100 nM.

In the case of `CN(C)C(=N)c1ccc(NC(=O)C2Cc3sccc3CN2C(=O)Nc2ccc(Cl)cc2)cc1` (centres unmarked) [Example 26, N-[4-(dimethylaminoimino)phenyl]-5N-(4-chlorophenylaminocarbonyl)-4,5,6,7-tetrahydro-thieno[3,2-c]pyridine-6-carboxamide], the IC50 is at most 100 nM.

In turn, `CN1CCCN(c2ccc(NC(=O)C3Cc4sccc4CN3C(=O)Nc3ccc(Cl)cc3)cc2)CC1` (centres unmarked) [Example 27, N-[4-(4-methyl-homopiperazinyl)]phenyl-5N-(4-chlorophenylaminocarbonyl)-4,5,6,7-tetrahydro-thieno[3,2-c]pyridine-6-carboxamide] gave an IC50 of at most 100 nM.

Turning to `CN1CCN=C1c1ccc(NC(=O)C2c3ccccc3CN2C(=O)Nc2ccc(Cl)cc2)cc1` (centres unmarked) [Example 28, N-[4-(1-methyl-4,5-dihydro-1H-imidazol-2-yl)phenyl]-2N-(4-chlorophenylaminocarbonyl)-2,3-dihydro-1H-isoindole-1-carboxamide], the IC50 was at most 100 nM.

`O=C(Nc1ccc(-c2cccc[n+]2[O-])cc1)C1c2ccccc2CN1C(=O)Nc1ccc(Cl)cc1` (centres unmarked) [Example 29, N-[4-(1N-oxo-pyridin-2-yl)phenyl]-2N-(4-chlorophenylaminocarbonyl)-2,3-dihydro-1H-isoindole-1-carboxamide] returned an IC50 of at most 100 nM.

`CN1CCCN(c2ccc(NC(=O)C3c4ccccc4CN3C(=O)Nc3ccc(Cl)cc3)cc2)CC1` (centres unmarked) [Example 30, N-[4-(4-methyl-homopiperazinyl)phenyl]-2N-(4-chlorophenylaminocarbonyl)-2,3-dihydro-1H-isoindole-1-carboxamide] displayed an IC50 of 100 to 500 nM.

Compound `O=C(Nc1ccc(N2CCOCC2=O)cc1)C1c2ccccc2CN1C(=O)Nc1ccc(Cl)cc1` (centres unmarked) [Example 31, N-[4-(3-oxo-morpholin-4-yl)phenyl]-2N-(4-chlorophenylaminocarbonyl)-2,3-dihydro-1H-isoindole-1-carboxamide] showed an IC50 of at most 100 nM.

In the case of `O=C(Nc1ccc(-c2cccc[n+]2[O-])cc1)C1Cc2ccccc2N1C(=O)Nc1ccc(Cl)cc1` (centres unmarked) [Example 32, N-[4-(1N-oxo-pyridin-2-yl)phenyl]-1N-(4-chlorophenylaminocarbonyl)-indoline-2-carboxamide], the IC50 fell in the range of 100 to 500 nM.

For `CN1CCCN(c2ccc(NC(=O)[C@H]3Cc4ccccc4CN3C(=O)Nc3ccc(Cl)cc3)cc2)CC1` [Example 33, (3R) N-[4-(4-methyl-homopiperazinyl)]phenyl-2N-(4-chlorophenylaminocarbonyl)-1,2,3,4-tetrahydroisoquinoline-3-carboxamide], the IC50 was at most 100 nM.

As for `CN1CCCN(c2ccc(NC(=O)[C@@H]3Cc4ccccc4CN3C(=O)Nc3ccc(Cl)cc3)cc2)CC1` [Example 34, (3S)N-[4-(4-methyl-homopiperazinyl)]phenyl-2N-(4-chlorophenylaminocarbonyl)-1,2,3,4-tetrahydroisoquinoline-3-carboxamide], the IC50 lay within 100 to 500 nM.

For the compound `CN1CCCN(c2ccc(NC(=O)[C@H]3Cc4ccccc4CN3C(=O)Nc3ccc(Cl)cc3)c(F)c2)CC1` [Example 35, (3R) N-[4-(4-methyl-homopiperazinyl)-2-fluorophenyl]-2N-(4-chlorophenylaminocarbonyl)-1,2,3,4-tetrahydroisoquinoline-3-carboxamide], the IC50 was at most 100 nM.

Compound `O=C(Nc1ccc(-n2ccccc2=O)cc1)[C@H]1Cc2ccccc2CN1C(=O)Nc1ccc(Cl)cc1` [Example 36, (3R) N-[4-(2-pyridon-1-yl)phenyl]-2N-(4-chlorophenylaminocarbonyl)-1,2,3,4-tetrahydroisoquinoline-3-carboxamide] yielded an IC50 of at most 100 nM.

With `O=C(Nc1ccc(-n2ccccc2=O)cc1)[C@@H]1Cc2ccccc2CN1C(=O)Nc1ccc(Cl)cc1` [Example 37, (3S)N-[4-(2-pyridon-1-yl)phenyl]-2N-(4-chlorophenylaminocarbonyl)-1,2,3,4-tetrahydroisoquinoline-3-carboxamide], the IC50 was at most 100 nM.

Compound `O=C(Nc1ccc(-n2ccccc2=O)cc1F)[C@H]1Cc2ccccc2CN1C(=O)Nc1ccc(Cl)cc1` [Example 38, (3R) N-[4-(2-pyridon-1-yl)-2-fluorophenyl]-2N-(4-chlorophenylaminocarbonyl)-1,2,3,4-tetrahydroisoquinoline-3-carboxamide] returned an IC50 of at most 100 nM.

`O=C(Nc1ccc(-n2ccccc2=O)cc1)C1Cc2cc(O)ccc2CN1C(=O)Nc1ccc(Cl)cc1` (centres unmarked) [Example 39, N-[4-(2-pyridon-1-yl)phenyl]-2N-(4-chlorophenylaminocarbonyl)-6-hydroxy-1,2,3,4-tetrahydroisoquinoline-3-carboxamide] returned an IC50 of at most 100 nM.

Turning to `CN1CCCN(c2ccc(NC(=O)C3Cc4cc(O)ccc4CN3C(=O)Nc3ccc(Cl)cc3)cc2)CC1` (centres unmarked) [Example 40, N-[4-(4-methyl-homopiperazinyl)phenyl]-2N-(4-chlorophenylaminocarbonyl)-6-hydroxy-1,2,3,4-tetrahydroisoquinoline-3-carboxamide], the IC50 was at most 100 nM.

For `O=C(Nc1ccc(-n2ccccc2=S)cc1)C1Cc2cc(O)ccc2CN1C(=O)Nc1ccc(Cl)cc1` (centres unmarked) [Example 41, N-[4-(2-thiopyridon-1-yl)phenyl]-2N-(4-chlorophenylaminocarbonyl)-6-hydroxy-1,2,3,4-tetrahydroisoquinoline-3-carboxamide], the IC50 was at most 100 nM.

As for `O=C([C@H]1Cc2ccccc2CN1C(=O)Nc1ccc(Cl)cc1)N1CCC(N2CCCCC2=O)CC1` [Example 42, (3R) 4-(2-piperidinon-1-yl)piperidin-1-yl 2N-(4-chlorophenylaminocarbonyl)-1,2,3,4-tetrahydroisoquinoline-3-carboxamide], the IC50 was at most 100 nM.

Compound `O=C([C@H]1Cc2ccccc2CN1C(=O)Nc1ccc(Cl)cc1)N1CCC(n2ccccc2=O)CC1` [Example 43, (3R) 4-(2-pyridon-1-yl)piperidin-1-yl 2N-(4-chlorophenylaminocarbonyl)-1,2,3,4-tetrahydroisoquinoline-3-carboxamide] yielded a half-inhibitory concentration (IC50) of at most 100 nM.

In turn, `O=C([C@H]1Cc2ccccc2CN1C(=O)Nc1ccc(Cl)cc1)N1CCC(N2CCOCC2=O)CC1` [Example 44, (3R) 4-(3-morpholinon-4-yl)piperidin-1-yl 2N-(4-chlorophenylaminocarbonyl)-1,2,3,4-tetrahydroisoquinoline-3-carboxamide] gave a half-inhibitory concentration (IC50) of at most 100 nM.

`CN1CCN(c2ccc(NC(=O)[C@H]3Cc4ccccc4CN3C(=O)Nc3ccc(Cl)cc3)cc2)C(=O)C1` [Example 45, (3R) N-[4-(4-methyl-2-piperazinon-1-yl)phenyl]-2N-(4-chlorophenylaminocarbonyl)-1,2,3,4-tetrahydroisoquinoline-3-carboxamide] had an IC50 of 100 to 500 nM.

On to `CN1CCCN(c2ccc(NC(=O)[C@H]3Cc4ccccc4CN3C(=O)Nc3ccc(Cl)cc3)cc2)C(=O)C1` [Example 46, (3R) N-[4-(4-methyl-2-homopiperazinon-1-yl)phenyl]-2N-(4-chlorophenylaminocarbonyl)-1,2,3,4-tetrahydroisoquinoline-3-carboxamide], for which the IC50 is at most 100 nM.

As to `O=C(Nc1ccc(-n2ccccc2=O)cc1)[C@H]1Cc2ccccc2CN1C(=O)Nc1ccc(F)cc1` [Example 47, (3R) N-[4-(2-pyridon-1-yl)phenyl]-2N-(4-fluorophenylaminocarbonyl)-1,2,3,4-tetrahydroisoquinoline-3-carboxamide], the IC50 was at most 100 nM.

One may read the IC50 as the midpoint of a concentration-inhibition curve. A high value points to weaker potency in that assay.
